Experimental data as given in patent US12228568B2, “Redox-labile fluorescent probes and their surface immobilization methods for the detection of metabolites” (The Regents of the University of California, priority 2018, dated 2025).
Where a SMILES comes first, the peptide text is derived from it. The star is where a group is joined. Biotin = O=C1N[C@H]2[C@H](CS[C@H]2CCCCC(=O)*)N1; X1 = O=C(c1c(O)ccc2c1oc1cc(=O)ccc-1[n+]2[O-])*

How the values were obtained:
[1] = system: GBM39 cells; assay: SCBC single cell metabolic/proteomic measurements; type: cell-based, human; settings: for glucose uptake / lactate production: erlotinib 1 μM 24 h or oligomycin A 0.1 μM 3 h vs DMSO
Source text: We then sought to adapt the lactate assay for single cell level quantitation. The surface-based lactate assay was incorporated onto the SCBC platform, which consisted of a two-layer elastomer microfluidics device coupled to a DNA barcoded glass slide.^[5, 7] The device contained 384 programmable microchambers where cells were loaded and lysed for analysis. Each microchamber was equipped with a set of DNA barcode stripes, which served as a scaffold for multiplex measurements (FIG. 18). We quantified glucose uptake, lactate production and a panel of signaling proteins from GBM39 single cells. GBM39 is a human glioblastoma cell line that harbors a mutated form of the epidermal growth factor receptor (EGFR), which drives cell proliferation. Cells were treated with 1 μM of erlotinib (EGFR inhibitor), 0.1 μM of oligomycin A (ATPase inhibitor) or DMSO (control) before analysis.
GBM 39 primary neurospheres were provided by Prof. C. David James (UCSF, San Francisco, U.S.A.) and HK301 cells were provided by Prof. Harley Kornblum (UCLA, Los Angeles, U.S.A). Cells were cultured in Dulbecco's Modified Eagle Media Nutrient Mix F-12 (DMEM/F12, Thermo) supplemented with B27 (Invitrogen), Glutamax (Thermo), heparin (1 μg/mL, Sigma), Epidermal Growth Factor (EGF, […], Sigma), Fibroblast Growth Factor (FGF, 20 ng/mL, Sigma) and 100 U/mL of penicillin and streptomycin (Thermo) in a humidified 5% CO2 (v/v) incubator at 37° C. […] For the erlotinib group, the GBM 39 cells were treated for 24 h while for the oligomycin group, the cells were treated for 3 h. Afterwards, the treated cells were processed for tests.
For SCBC measurements, the as-prepared single cells were resuspended in warm media with 10 μg/mL of Gluc-Bio at 1 M cells/mL. After incubated at 37° C. for 30 min and washed with cold PBS for 3 times, the collected cell pellet was resuspended in serum-free, biotin-free media which contained 25 U/mL lactate dehydrogenase (LDH) and 25 U/mL diaphorase. The concentration of the as-prepared single cell suspension was 1 M cells/mL.
The single cell barcode chips (SCBC) were fabricated according to well-established procedures. DNA-encoded antibody library (DEAL) was grafted onto the surface through DNA hybridization to afford capture antibody arrays. The DNA-APRz conjugate can also be incorporated onto the surface barcode through the same procedure. […] 2) the lysis buffer was prepared to contain 2 mM of NAD^+.
The SCBC readouts from the microchambers with single cells were collected to form a data table. Each row of the table corresponds to a measurement of a panel of functional proteins from a single cell and each column contains digitized fluorescence intensities that provide readout of the levels of each of the assayed proteins. […]. Protein-protein Spearman's rank correlation coefficients were calculated. Bonferroni corrected p-value was used to define the statistical significance level for the entire panel and only those significant correlations were shown in the networks. Analyte-analyte correlation networks were generated by running the calculation through all the analyte pairs in panel.

[2] = Interference of intracellular reducing agents with APRz detection; type: biochemical; settings: Glutamine 6 mM; Glucose 6 mM; Ascorbate 100 nM; Glutathione 6 mM; APRz 8 µM in PBS
Source text: FIG. 15. Comparison of the reaction kinetics using different reducing agents.
A potential concern of employing the enzymatic mechanism for lactate quantitation was the specificity of the method. The complex intracellular contents always pose strong challenges on such redox-based methods. […] In order to evaluate the combined interference from all intracellular components, we further performed validation using GBM39 cell lysates.

[3] = Stability of modified resazurin probes; type: physicochemical; settings: solution phase, 8 μM in PBS
Experimental: FIG. 7. Synthesis of the extended CRz bearing an aliphatic carboxyl group (CPRz). This carboxyl group could be readily converted to an NHS ester using standard coupling procedures. However, the ss-DNA-CPRz was not stable, and went through spontaneous self-reduction even at −20° C.
FIG. 10. Stability of Biotin-modified CRz (BRz) in solution phase. 8 μM in PBS. At 6 hrs, all the BPRz was reduced through adding 10 units of Diaphorase and 1 mM of NADH in PBS.
FIG. 11. Stability of the APRz probe (8 μM in PBS). The “reduced” signal was obtained through adding 10 units of Diaphorase and 1 mM of NADH to the APRz solution followed by a 1 hour incubation.
In order to be adapted to the SCBC platform, the probe immobilization process should be compatible with the single-stand DNA hybridization process.^[5] However, the N-oxide group on CRz confers strong redox lability. Consequently, the attempt of conjugating the amine-modified CRz to a single strand DNA (ssDNA) was unsuccessful.

[4] = Surface-based lactate assay on immobilized resazurin probes (coupled LDH/diaphorase reactions); type: biochemical; settings: surface-immobilized probe; sodium lactate, NAD+, LDH and diaphorase
Source text: We then evaluated the BRz and APRz probes for their performance in lactate detection experiments. BRz was immobilized onto the surface through ssDNA-streptavidin conjugates. Similarly, dibenzocyclooctyne-modified ssDNA enabled surface grafting of APRz molecules (FIG. 3, panel a).^[10] The resazurin-modified surfaces were exposed to a solution containing a mixture of sodium lactate, nicotinamide adenine dinucleotide (NAD+), lactate dehydrogenase (LDH) and diaphorase. In this case, the enzyme reaction cascade shown in FIG. 1, panel a translates the lactate quantity to fluorescence readouts.
A 16-well PDMS slab was placed onto a microscope glass slide, on which single strand DNA oligomers are patterned in 20 μm stripes. The volume of each well is 50 μL and it is equipped with at least eight sets of DNA barcode strips. […]
Subsequently, each well was washed with PBST for three times. At this stage, the APRz probe was immobilized to the surface and ready to use.
To obtain the standard curve for lactate quantification, 20 μL of NAD+ solution (1 mM in PBST), 1 μL of LDH solution (1 kU in ammonium sulfate buffer), 1 μL of diaphorase solution (1 kU/mL in PBS) and 20 μL of lactate solution (various concentrations in PBST) was added to each well and the device was incubated at room temperature for one hour. […] The surface fluorescence intensity was then measured by a microscanner. […]

CC[C@H]1/C=C/C=C/C[C@@H](C)[C@H](O)[C@@](C)(O)C(=O)[C@@H](C)[C@H](O)[C@@H](C)C(=O)[C@@H](C)[C@H](O)[C@@H](C)/C=C/C(=O)O[C@@H]2[C@H](C)[C@H](CC1)O[C@]1(CC[C@H](C)[C@H](C[C@@H](C)O)O1)[C@H]2C [oligomycin, oligomycin A]
glucose uptake [1]: slightly higher
lactate production [1]: significantly increased
phosphoproteins downstream of the EGFR signaling pathway ([1]; oligomycin A 0.1 μM 3 h vs DMSO): suppress

N[C@@H](CCC(=O)N[C@@H](CS)C(=O)NCC(=O)O)C(=O)O [glutathione]
fluorescence increase within the assay duration [2]: insignificant fluorescence increase
reaction kinetics of APRz reduction by reducing agent [2]: very slow reaction kinetics

C#Cc1cccc(Nc2ncnc3cc(OCCOC)c(OCCOC)cc23)c1 [erlotinib]
glucose uptake [1]: dramatically decreased
lactate production [1]: dramatically decreased
phosphorylation levels on EGFR as well as downstream signaling proteins ([1]; erlotinib 1 μM 24 h vs DMSO): significant down regulation

NCCCC[C@H](NC(=O)CNC(=O)CCCC[C@@H]1SC[C@@H]2NC(=O)N[C@@H]21)C(=O)NCC(=O)N[C@@H](CCCCN)C(=O)NCC(=O)N[C@@H](CCCCN)C(=O)NCC(=O)N[C@@H](CCCCNC(=O)c1c(O)ccc2c1oc1cc(=O)ccc-1[n+]2[O-])C(=O)NCC(N)=O [BRz] (Biotin-GKGKGKGK(X1)G-NH2)
stability of probe [3]: superior stability
increase of fluorescence intensity after lactate conversion [4]: unsatisfactory fluorescence increase

O=C1O[C@H]([C@@H](O)CO)C(O)=C1O [ascorbic acid]
fluorescence increase within the assay duration [2]: insignificant fluorescence increase
reaction kinetics of APRz reduction by reducing agent [2]: very slow reaction kinetics
